Among the data in a melting point compilation (Tetko et al.; mined from patent text by program, amines drawn as free bases though some values may be those of a salt) are melting point values, retold here.

For orientation: melting point means the temperature, or range, at which the solid turns liquid. For the compound `CCN(CC(F)(F)F)c1cccc([N+](=O)[O-])c1`, the melting point was 66 °C.
The value for `CCCCc1nc2c(N)nc(C)c(C)c2n1CC(C)(C)NC(=O)NC1CCCCC1` was 128 to 130 °C.
In the case of `CN(CCOc1ccc(CC2SC(=O)NC2=O)cc1)c1nccs1` (centres undefined) it was 186 °C; in that of `O=S1CCON=C1c1cccc(F)c1` (centres undefined), 79 °C; in that of `CCOC(=O)c1ccc(NC(=O)c2ccc(OC)c(OC)c2)c2ccccc12`, 144 to 146 °C.
In the case of `COc1nc(-c2ccccc2Cl)c2ccsc2n1` it was 172 to 174 °C.
For the compound `CC(=O)OC1CSC(Oc2ccc(-c3cccnc3F)nc2)C(OC(C)=O)C1OC(C)=O` (centres undefined), the melting point worked out at 153 °C.
In the case of `COc1ccc2c(c1OC)CCC(NC(=O)C(F)(F)F)C2=O` (centres undefined) it was 166 to 167 °C; in that of `CC(O)CCc1ccc(-c2ccccc2F)cc1` (centres undefined), 59 to 60 °C; in that of `COc1ccc(OC)c(-c2nnc3ccc(Cl)nn23)c1`, 111 to 112 °C.
With `COC(=O)c1cccc2c(C=O)c[nH]c12`, the melting point is 153 to 154 °C.
The value for `O=C(CCN1CCOCC1)NCc1ccc2c(c1)Cc1c(-c3ccsc3)n[nH]c1-2` was 205 to 207 °C; that for `O=C1CCCc2nc3cc(Cl)ccc3c(NCc3ccccc3)c21` was 141 to 143 °C; that for `Cc1cc2ncn(Cc3ccc([N+](=O)[O-])cc3)c2cc1C` was 175 to 177 °C.
For the compound `CCOC(OCC)C(N)=C(c1ccncc1N)c1ccccc1Cl`, the melting point fell in the range of 94 to 95 °C.
`CCc1ccc(-c2nnc(N3CCC(O)CC3)nc2-c2ccc(CC)cc2)cc1` returned a melting point of 164 to 166 °C.
In the case of `FC(F)(F)c1ccc(-c2ccc3nncn3n2)cc1` it was 160 to 161 °C.
The value for `CN(C)CCNC(=O)c1cccc(-c2ccnc(C(=O)N(O)Cc3ccccc3)c2)c1` was 65 to 70 °C.
`CC1CNC(CN(CC(=O)O)C(=O)c2ccccc2)c2ccccc21` (centres undefined): the melting point is 157 °C.
The value for `O=C(O)c1ccc(NC(=O)c2ccncc2)cc1` was 362 to 365 °C; that for `CS(=O)(=O)c1ccc(-c2cnn(-c3cccc(Cl)c3)c(=O)c2SCc2ccco2)cc1` was 140 to 149 °C; that for `CC(C)(CO)NC(=O)c1nn(-c2ccc(F)cc2F)c2c1C1CCC2C1` (centres undefined) was 142 to 144 °C.
In the case of `CCOC(=O)c1cc(=O)c(Sc2ccc(OC)cc2)co1` it was 90 to 92 °C; in that of `CS(=O)(=O)c1ccc(-c2cnn(Cc3ccccc3)c(=O)c2-c2ccc(Cl)c(Cl)c2)cc1`, 161 to 163 °C; in that of `O=C(O)CCc1c(C(=O)O)[nH]c2cc(Br)cc(Br)c12`, 259 °C.
For `Fc1ccc(Oc2ccc(-c3c[nH]cn3)cc2)cc1`, the melting point was 165 to 168 °C.
The value for `C=CCC1(C(C)(C)C(=O)OCC)C(=O)NC(=O)NC1=O` was 112 to 114 °C.
The value for `CC(=O)Nc1ccc(N2CCN(Cc3ncc(-c4ccccc4)o3)CC2)cc1` was 196 to 197 °C; that for `CCSc1nc(O)nn1C(C)C` was 109 to 114 °C.
The value for `O=C1Nc2ccc(Cl)cc2C(C#Cc2ccccc2)(C(F)(F)F)O1` (single isomer, unassigned; (-)) was 178 to 179 °C; that for `CCCCc1nc2c(N)nc3ccc(OCC(=O)N(C)Cc4ccccc4)cc3c2n1C` was 167 to 169 °C.
On to `COc1cccc2c1SCCC2=O`, for which the melting point turned out to be 110 °C.
`CC1CCCN1CCCN1CCN(CCCN2CCC(F)(F)C2)C1=C(C#N)C#N` (centres undefined) showed a melting point of 99 to 102 °C.
The value for `CCOC(=O)Nc1ccc(OCc2ccc(Cl)cc2)cc1[N+](=O)[O-]` was 122 °C; that for `CCCCN(Cc1ccc(-c2ccccc2-c2nnnn2C(c2ccccc2)(c2ccccc2)c2ccccc2)cc1)c1nc(C)ncc1C(=O)OCC` was 130 to 132 °C.
With `CC1(C)CCC(C)(C)c2cc([N+](=O)[O-])c(O)cc21`, the melting point came to 139 °C.
The value for `C#Cc1cc(Cl)cc2nc(Cc3cc(C(C)(C)C)c(O)c(C(C)(C)C)c3)oc12` was 152 to 155 °C; that for `CC(C)(C)c1cc(CCc2ccccc2NC(=O)NCc2ccccn2)cc(C(C)(C)C)c1O` was 189 to 190 °C; that for `N#Cc1nc(Cl)nc(N2CCS(=O)CC2)c1Cl` was 145 to 147 °C.
In the case of `COc1ccccc1CN=C1C2CCN(CC2)C1C(c1ccccc1)c1ccccc1` (centres undefined) it was 154 to 158 °C.
The value for `CN(C)C(=O)c1ccc(-c2ccc(N)cc2)cc1` was 184 to 186 °C.
`CCCCC12COC(c3ccc(Br)cc3)(OC1)SC2` displayed a melting point of 110 to 112 °C.
In the case of `C=Cc1cc(CNC(=O)NCc2ccc(C(C)(C)C)cc2)cc(C(F)(F)F)c1NS(C)(=O)=O` it was 134 to 136 °C.
In the case of `CCCc1ccc(-c2nnc(SC)nn2)cc1` it was 78 to 79 °C; in that of `CC(C)(C)c1ccc(S(=O)(=O)N2c3ccccc3C[C@H]2C(=O)NCc2ccc(Cl)cc2)cc1`, 69 °C.
The value for `CCCc1cc(OCc2ccc(C(=O)O)cc2)c2ccccc2n1` was 225 to 227 °C; that for `COC(=O)c1ccc(NS(C)(=O)=O)c(C=NO)c1` was 160 °C.
`Cc1noc(NS(=O)(=O)c2ccccc2[N+](=O)[O-])c1C` had a melting point of 91 to 94 °C.
In the case of `CCOCc1nc2c(N)nc3cc(-c4ccccc4)ccc3c2n1CC1CCNCC1` it was 142 to 143 °C.
The value for `Fc1cc(Cl)c(OC(F)F)cc1-c1ncnc(C(F)F)c1Cl` was 56 to 57 °C; that for `CN(C)n1c(C(F)(F)F)n[nH]c1=O` was 138 °C; that for `O=C(Cc1ccc(-c2cccc(F)c2)cc1)Nc1n[nH]c2c1CCC2` was 180 to 181 °C.
`Cn1c2c(cnc3c(N)cccc32)c(=O)n1C(=O)OC(C)(C)C` returned a melting point above 250 °C.
In the case of `COc1ccc(N(Cc2cc(C(C)(C)C)c(O)c(C(C)(C)C)c2)S(=O)(=O)c2ccc(C)cc2)cn1` it was 127 to 129 °C; in that of `COC(Cn1cncn1)(c1ccc(Cl)cc1)C(C)(C)C1CC1` (centres undefined), 87 to 89 °C; in that of `C#CCOc1cc(-c2ncc(C(F)(F)F)cc2Cl)ccc1Cl`, 102 to 103 °C.
In the case of `CC1SC(=O)NN=C1c1ccc2c(c1)C(=Cc1ccccc1O)C(=O)N2` (centres undefined) it was 233 °C.
The value for `Cc1oc(-c2ccco2)nc1COc1ccc(CCCn2ccnc2)cc1` was 89 to 90 °C.
The compound `COc1nc(C(F)(F)F)cc(=O)n1-c1cc(C(=O)N(C)OC)c(Cl)cc1F` showed a melting point of 119 °C.
The value for `Nc1c2c(nc3ccccc13)-c1ccccc1CCC2` was 190 to 192 °C.
The compound `O=C(c1ccccc1O)c1cccc2[nH]ccc12` had a melting point of 165 °C.
Compound `Clc1cccc(CNc2ncc(Cc3ccncc3)c3ccccc23)c1` showed a melting point of 141 to 142 °C.
The value for `CCCCCCCCc1ccc(C(=S)c2ccc(OCCCC)cc2O)cc1` was 77 to 79 °C.
The value for `CNC(=C[N+](=O)[O-])NCc1ccc(Cl)cc1` was 219 to 220 °C; that for `COc1cc2c(cc1OC)C(O)(c1ccccn1)CC(C)(C)CO2` (centres undefined) was 90 °C; that for `O=C(Nc1c(C(O)(C(F)(F)F)C(F)(F)F)ccc2ccccc12)c1ccccc1Cl` was 209 to 211 °C.
In the case of `CCOC(=O)N1CCC(n2nc(Cc3ccc(F)cc3)c3ccccc3c2=O)CC1` it was 151 to 152 °C.
`CCCCCCCNC(=O)Nc1ccccc1C(=O)NC1CCN(Cc2c(C(C)C)nc(C(C)C)c(COC)c2-c2ccc(F)cc2)CC1`: the melting point worked out at 123 °C.
In the case of `CC(=O)N1CCc2cc(Br)cc(C#N)c21` it was 170 to 175 °C; in that of `CC(=O)Oc1c(CN(C)C)c2c(c3c1OC(C)(C)C3)C(c1ccccc1)=NC(C)(C)C2`, 125 to 126 °C.
In the case of `CCc1noc(CC(=O)c2ccccc2)c1C(=O)NC` it was 134 to 136 °C.
In the case of `CCc1nn2c(N)cc(C)nc2c1S(=O)(=O)c1ccc(OC)cc1` it was 186 to 188 °C; in that of `Cc1ncc(CN2CC=C(c3ccccc3)CC2)c(N)n1`, 165 to 166 °C; in that of `CCn1c(=O)c2c(-c3nc(C4CC4)no3)ncn2c2cccnc21`, 262 to 263 °C.
In turn, `O=c1c2ccccc2sc2ccc(SC(F)(F)F)cc12` yielded a melting point of 126 to 127 °C.
In the case of `CC(C)(C)C(O)(c1ccccc1)c1cc(Cl)ccc1O` (centres undefined) it was 146 °C.
The value for `CS(=O)(=O)c1ccccc1SCc1ccccc1` was 132 to 133 °C.
In the case of `NS(=O)(=O)c1ccc(-n2nc(C(F)(F)F)cc2-c2ccc(Cl)cc2Cl)cc1` it was 153 to 155 °C; in that of `CCN(CC)CCNC(=O)c1cc(Cl)c(N)cc1OCCC(C)OC` (centres undefined), 76 to 78 °C.
The compound `CCCCCC(C)C(C)c1cc(O)c2c(c1)OC(C)(C)C1=C2CN(CC(=O)NC(=O)NC)CC1` (centres undefined) showed a melting point of 145 to 147 °C.
Turning to `CCOP(=O)(CCCOc1ccc(C(=O)O)cc1)OCC`, the melting point was 107 to 110 °C.
`CCCc1c(OCCCOc2ccc(C(=O)C(=O)O)cc2)ccc(C(=O)OC)c1O` returned a melting point of 86 to 87 °C.
The value for `N#CCOc1cc(C(F)(F)F)nc2ccc(-c3cc4ccccc4o3)cc12` was 174 to 176 °C; that for `COC1OCC2C(=O)C3CCCCC3CC12` (centres undefined) was 78 to 79 °C; that for `COC(=O)C(C(C)C)S(=O)(=O)N(C(C)=O)c1nc(OC)cc(OC)n1` (centres undefined) was 100 to 102 °C.
In the case of `C#CCOC1c2ccccc2Oc2ccccc21` it was 74 to 76 °C.
The value for `CCOC(=O)c1ncn2c1CN(C)C(=O)c1c(Cl)cccc1-2` was 229 to 230 °C.
In the case of `O=C(Nc1ccccc1S(=O)(=O)c1ccccc1)N[C@@H](Cc1ccc(Oc2nccc3ccncc23)cc1)C(=O)O`, the melting point worked out at 164 °C.
Turning to `Brc1ccc2c(c1)N=C(N1CCN(c3ccccc3)CC1)c1cccc3c1N2CC3`, the melting point was 171 to 173 °C.
